# Measured values published in paper PMC3106419 (Bioconjugate chemistry, 2009).
# Molecular target: T1, human P2Y14 receptor (Homo sapiens, UniProt Q15391)
# T1 sequence (Q15391 1-338): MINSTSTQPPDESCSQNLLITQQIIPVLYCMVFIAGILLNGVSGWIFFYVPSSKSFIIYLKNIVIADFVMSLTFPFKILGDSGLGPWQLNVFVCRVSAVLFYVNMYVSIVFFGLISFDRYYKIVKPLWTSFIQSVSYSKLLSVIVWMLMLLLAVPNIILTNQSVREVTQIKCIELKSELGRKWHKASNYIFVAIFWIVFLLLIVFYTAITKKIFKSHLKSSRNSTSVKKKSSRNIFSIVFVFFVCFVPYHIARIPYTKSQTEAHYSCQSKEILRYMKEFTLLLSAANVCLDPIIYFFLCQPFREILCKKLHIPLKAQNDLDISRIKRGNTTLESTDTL
# Experiment: Inhibition of forskolin-stimulated cyclic AMP accumulation in P2Y14-HEK293 cells
# Type: cell-based
# Details: for relative potency at the P2Y14 receptor: comparator named in the value; for fold more potent than native agonist UDPG 1: potency ratio vs compound 1 at hP2Y14 receptor; for fold more potent than monomer 3a: potency ratio vs ethylenediamine analogue 3a at hP2Y14 receptor
Compound,relative potency at the P2Y14 receptor,further results
G3-(UDPGA)20.1-(DTPA)4.5 [compound 15],essentially as potent as 9,
G3-(UDPGA)20.1 [compound 9],,fold more potent than native agonist UDPG 1: approximately 100 fold
G6-(UDPGA)147 [compound 12],significantly more potent than 9,
G3-(UDPGA)4.3 [compound 8],"considerably less potent than 9, but similar in potency to 1",
"O=C(O)[C@H]1O[C@H](OP(=O)(O)OP(=O)(O)OC[C@H]2O[C@@H](n3ccc(=O)[nH]c3=O)[C@H](O)[C@@H]2O)[C@H](O)[C@@H](O)[C@@H]1O [compound 2, uridine-5′-diphosphoglucuronic acid, reference compound]",approximately equipotent to 1,
G3-(UDPGA)20.1-(AlexaFluor488)2.3 [compound 14],,fold more potent than native agonist UDPG 1: 7 fold; fold less potent than conjugate 9 (potency ratio vs compound 9 at hP2Y14 receptor): 17 fold
G5.5-(UDPGA-ethylenediamine)29.9 [compound 11],,fold more potent than monomer 3a: more than 800 fold
G3-(UDPGA)20.1-(Biotin)4.9 [compound 13],essentially as potent as 9,
G2.5-(UDPGA-ethylenediamine)17.3 [compound 10],,fold more potent than monomer 3a: more than 800 fold
UDPGA-ethylenediamine [3a],considerably less potent,
